Reference: US20200187502A1, “MICROBIOCIDAL OXADIAZOLE DERIVATIVES” (SYNGENTA PARTICIPATIONS AG, priority 2017, published 2020)

Assays:
[1] = system: Glomerella lacenarium (Colletotrichum lacenarium); assay: Fungicidal activity, liquid culture, cucumber preventative (anthracnose); assay type: cell-based; conditions: 20 ppm in the applied formulation, liquid culture in PDB, inhibition of growth measured photometrically 3 to 4 days after application, compared to untreated control, read-out: disease control
Summary of the method: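 Spore-based broth assay: conidia mixed into PDB meet compound from a DMSO solution in 96-well format, incubate at 24° C., then inhibition of growth is determined by photometry 3–4 days later relative to the untreated check.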

[2] = system: Puccinia recondita f. Sp. Tritici; assay: Fungicidal activity, wheat leaf disc curative (brown rust); assay type: in vivo; conditions: foliar, 200 ppm in the applied formulation, wheat leaf segments cv. Kanzler, curative (applied 1 day after inoculation), compared to untreated control, 6 to 8 days after application, read-out: disease control
Summary of the method: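 Compounds, prepared from DMSO solutions of at most 10 mg/ml and diluted just before spraying, are applied curatively to inoculated Kanzler wheat leaf segments. Segments are incubated at 19° C and 75% RH in a climate cabinet; disease control relative to untreated is evaluated 6 to 8 days later.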

[3] = system: Puccinia recondita f. Sp. Tritici; assay: Fungicidal activity, wheat leaf disc preventative (brown rust); assay type: in vivo; conditions: foliar, 200 ppm in the applied formulation, wheat leaf segments cv. Kanzler, compared to untreated control, 7 to 9 days after application, read-out: disease control
Summary of the method: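 Preventative leaf-segment test: spray application of diluted formulated compound on wheat cv. Kanzler, spore inoculation after 1 day. Percent control relative to untreated segments rated 7 to 9 days post-application, with incubation at 19° C, 75% relative humidity, 12 h photoperiod.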

[4] = system: Phakopsora pachyrhizi; assay: Fungicidal activity, soybean leaf disc preventative (Asian soybean rust); assay type: in vivo; conditions: foliar, 200 ppm in the applied formulation, soybean leaf disks, compared to untreated control, 12 to 14 days after application, read-out: disease control
Summary of the method: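 Read-out is percent disease control relative to untreated check discs, assessed once untreated discs show adequate disease, 12 to 14 days after application. Compounds, tested at 200 ppm in the applied formulation, are sprayed onto soybean leaf discs one day before inoculation with a spore suspension.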

COCCC(=O)NCc1ccc(-c2noc(C(F)(F)F)n2)s1 [Compound 2.4, 3-methoxy-N-[[5-[5-(trifluoromethyl)-1,2,4-oxadiazol-3-yl]-2-thienyl]methyl]propanamide]
≥ 80%: inhibition of growth at 20 ppm [1] | pest or weed control at 200 ppm [2] | pest or weed control at 200 ppm [3] | pest or weed control at 200 ppm [4]

CCC(=O)NCc1ccc(-c2noc(C(F)(F)F)n2)s1 [Compound 2.5, N-[[5-[5-(trifluoromethyl)-1,2,4-oxadiazol-3-yl]-2-thienyl]methyl]propanamide]
≥ 80%: inhibition of growth at 20 ppm [1] | pest or weed control at 200 ppm [2] | pest or weed control at 200 ppm [3] | pest or weed control at 200 ppm [4]

COC(C)C(=O)NCc1ccc(-c2noc(C(F)(F)F)n2)s1 (stereo not drawn) [Compound 2.6, 2-methoxy-N-[[5-[5-(trifluoromethyl)-1,2,4-oxadiazol-3-yl]-2-thienyl]methyl]propanamide]
≥ 80%: inhibition of growth at 20 ppm [1] | pest or weed control at 200 ppm [2] | pest or weed control at 200 ppm [3] | pest or weed control at 200 ppm [4]

CCC(C)C(=O)NCc1ccc(-c2noc(C(F)(F)F)n2)s1 (stereo not drawn) [Compound 2.7, 2-methyl-N-[[5-[5-(trifluoromethyl)-1,2,4-oxadiazol-3-yl]-2-thienyl]methyl]butanamide]
≥ 80%: inhibition of growth at 20 ppm [1] | pest or weed control at 200 ppm [2] | pest or weed control at 200 ppm [3] | pest or weed control at 200 ppm [4]

CCCC(=O)NCc1ccc(-c2noc(C(F)(F)F)n2)s1 [Compound 2.8, N-[[5-[5-(trifluoromethyl)-1,2,4-oxadiazol-3-yl]-2-thienyl]methyl]butanamide]
≥ 80%: inhibition of growth at 20 ppm [1] | pest or weed control at 200 ppm [2] | pest or weed control at 200 ppm [3] | pest or weed control at 200 ppm [4]

CC(C)C(=O)NCc1ccc(-c2noc(C(F)(F)F)n2)s1 [Compound 2.9, 2-methyl-N-[[5-[5-(trifluoromethyl)-1,2,4-oxadiazol-3-yl]-2-thienyl]methyl]propanamide]
≥ 80%: inhibition of growth at 20 ppm [1] | pest or weed control at 200 ppm [2] | pest or weed control at 200 ppm [3] | pest or weed control at 200 ppm [4]

COCCCC(=O)NCc1ccc(-c2noc(C(F)(F)F)n2)s1 [Compound 2.10, 4-methoxy-N-[[5-[5-(trifluoromethyl)-1,2,4-oxadiazol-3-yl]-2-thienyl]methyl]butanamide]
≥ 80%: inhibition of growth at 20 ppm [1] | pest or weed control at 200 ppm [2] | pest or weed control at 200 ppm [3] | pest or weed control at 200 ppm [4]

CC(=O)NCc1ccc(-c2noc(C(F)(F)F)n2)s1 [Compound 2.11, N-[[5-[5-(trifluoromethyl)-1,2,4-oxadiazol-3-yl]-2-thienyl]methyl]acetamide]
≥ 80%: inhibition of growth at 20 ppm [1] | pest or weed control at 200 ppm [2] | pest or weed control at 200 ppm [3] | pest or weed control at 200 ppm [4]

O=C(CC(F)(F)F)NCc1ccc(-c2noc(C(F)(F)F)n2)s1 [Compound 2.12, 3,3,3-trifluoro-N-[[5-[5-(trifluoromethyl)-1,2,4-oxadiazol-3-yl]-2-thienyl]methyl]propanamide]
≥ 80%: inhibition of growth at 20 ppm [1] | pest or weed control at 200 ppm [2] | pest or weed control at 200 ppm [3] | pest or weed control at 200 ppm [4]

O=C(NCc1ccc(-c2noc(C(F)(F)F)n2)s1)C1CC1 [Compound 3.1, N-[[5-[5-(trifluoromethyl)-1,2,4-oxadiazol-3-yl]-2-thienyl]methyl]cyclopropanecarboxamide]
≥ 80%: inhibition of growth at 20 ppm [1] | pest or weed control at 200 ppm [2] | pest or weed control at 200 ppm [3] | pest or weed control at 200 ppm [4]

O=C(NCc1ccc(-c2noc(C(F)(F)F)n2)s1)C1CC1(F)F (stereo not drawn) [Compound 3.2, 2,2-difluoro-N-[[5-[5-(trifluoromethyl)-1,2,4-oxadiazol-3-yl]-2-thienyl]methyl]cyclopropanecarboxamide]
≥ 80%: inhibition of growth at 20 ppm [1] | pest or weed control at 200 ppm [2] | pest or weed control at 200 ppm [3] | pest or weed control at 200 ppm [4]

O=C(NCc1ccc(-c2noc(C(F)(F)F)n2)s1)C1CCOC1 (stereo not drawn) [Compound 3.3, N-[[5-[5-(trifluoromethyl)-1,2,4-oxadiazol-3-yl]-2-thienyl]methyl]tetrahydrofuran-3-carboxamide]
≥ 80%: inhibition of growth at 20 ppm [1] | pest or weed control at 200 ppm [2] | pest or weed control at 200 ppm [3] | pest or weed control at 200 ppm [4]

O=C(NCc1ccc(-c2noc(C(F)(F)F)n2)s1)C1CCC1 [Compound 3.4, N-[[5-[5-(trifluoromethyl)-1,2,4-oxadiazol-3-yl]-2-thienyl]methyl]cyclobutanecarboxamide]
≥ 80%: inhibition of growth at 20 ppm [1] | pest or weed control at 200 ppm [2] | pest or weed control at 200 ppm [3] | pest or weed control at 200 ppm [4]

CC1CC1C(=O)NCc1ccc(-c2noc(C(F)(F)F)n2)s1 (stereo not drawn) [Compound 3.5, 2-methyl-N-[[5-[5-(trifluoromethyl)-1,2,4-oxadiazol-3-yl]-2-thienyl]methyl]cyclopropanecarboxamide]
≥ 80%: inhibition of growth at 20 ppm [1] | pest or weed control at 200 ppm [2] | pest or weed control at 200 ppm [3] | pest or weed control at 200 ppm [4]

CC1(C(=O)NCc2ccc(-c3noc(C(F)(F)F)n3)s2)CC1 [Compound 3.6, 1-methyl-N-[[5-[5-(trifluoromethyl)-1,2,4-oxadiazol-3-yl]-2-thienyl]methyl]cyclopropanecarboxamide]
≥ 80%: inhibition of growth at 20 ppm [1] | pest or weed control at 200 ppm [2] | pest or weed control at 200 ppm [3] | pest or weed control at 200 ppm [4]

CC1(C(=O)NCc2ccc(-c3noc(C(F)(F)F)n3)s2)COC1 [Compound 3.7, 3-methyl-N-[[5-[5-(trifluoromethyl)-1,2,4-oxadiazol-3-yl]-2-thienyl]methyl]oxetane-3-carboxamide]
≥ 80%: inhibition of growth at 20 ppm [1] | pest or weed control at 200 ppm [2] | pest or weed control at 200 ppm [3] | pest or weed control at 200 ppm [4]

O=C(NCc1ccc(-c2noc(C(F)(F)F)n2)s1)C1CCCO1 (stereo not drawn) [Compound 3.8, N-[[5-[5-(trifluoromethyl)-1,2,4-oxadiazol-3-yl]-2-thienyl]methyl]tetrahydrofuran-2-carboxamide]
≥ 80%: inhibition of growth at 20 ppm [1] | pest or weed control at 200 ppm [2] | pest or weed control at 200 ppm [3] | pest or weed control at 200 ppm [4]

O=C(NCc1ccc(-c2noc(C(F)(F)F)n2)s1)c1ccccc1Cl [Compound 3.9, 2-chloro-N-[[5-[5-(trifluoromethyl)-1,2,4-oxadiazol-3-yl]-2-thienyl]methyl]benzamide]
≥ 80%: inhibition of growth at 20 ppm [1] | pest or weed control at 200 ppm [2] | pest or weed control at 200 ppm [3] | pest or weed control at 200 ppm [4]

O=C(CC1CC1)NCc1ccc(-c2noc(C(F)(F)F)n2)s1 [Compound 3.10, 2-cyclopropyl-N-[[5-[5-(trifluoromethyl)-1,2,4-oxadiazol-3-yl]-2-thienyl]methyl]acetamide]
≥ 80%: inhibition of growth at 20 ppm [1] | pest or weed control at 200 ppm [2] | pest or weed control at 200 ppm [3] | pest or weed control at 200 ppm [4]

CNC(=O)N(C)Cc1ccc(-c2noc(C(F)(F)F)n2)s1 [Compound 4.1, 1,3-dimethyl-1-[[5-[5-(trifluoromethyl)-1,2,4-oxadiazol-3-yl]-2-thienyl]methyl]urea]
≥ 80%: inhibition of growth at 20 ppm [1] | pest or weed control at 200 ppm [2] | pest or weed control at 200 ppm [3] | pest or weed control at 200 ppm [4]

CNC(=O)N(Cc1ccc(-c2noc(C(F)(F)F)n2)s1)C1CC1 [Compound 4.2, 1-cyclopropyl-3-methyl-1-[[5-[5-(trifluoromethyl)-1,2,4-oxadiazol-3-yl]-2-thienyl]methyl]urea]
≥ 80%: inhibition of growth at 20 ppm [1] | pest or weed control at 200 ppm [2] | pest or weed control at 200 ppm [3] | pest or weed control at 200 ppm [4]
